The source of these data is US11591336B2 (Relay Therapeutics, Inc., priority 2017, dated 2023).

This test deals with SHP2 (Homo sapiens (Human), UniProt Q06124). Briefly: SHP2 Allosteric Inhibition Assay (DiFMUP prompt fluorescence). Format: biochemical. The following applies: 0.25 nM SHP2 activated with 0.5 μM peptide IRS1_pY1172(dPEG8)pY1222; substrate DiFMUP 100 μM; 25° C.

Structures can show the parent of a compound that is named as a salt.

Chain of SHP2 (Q06124 whole entry): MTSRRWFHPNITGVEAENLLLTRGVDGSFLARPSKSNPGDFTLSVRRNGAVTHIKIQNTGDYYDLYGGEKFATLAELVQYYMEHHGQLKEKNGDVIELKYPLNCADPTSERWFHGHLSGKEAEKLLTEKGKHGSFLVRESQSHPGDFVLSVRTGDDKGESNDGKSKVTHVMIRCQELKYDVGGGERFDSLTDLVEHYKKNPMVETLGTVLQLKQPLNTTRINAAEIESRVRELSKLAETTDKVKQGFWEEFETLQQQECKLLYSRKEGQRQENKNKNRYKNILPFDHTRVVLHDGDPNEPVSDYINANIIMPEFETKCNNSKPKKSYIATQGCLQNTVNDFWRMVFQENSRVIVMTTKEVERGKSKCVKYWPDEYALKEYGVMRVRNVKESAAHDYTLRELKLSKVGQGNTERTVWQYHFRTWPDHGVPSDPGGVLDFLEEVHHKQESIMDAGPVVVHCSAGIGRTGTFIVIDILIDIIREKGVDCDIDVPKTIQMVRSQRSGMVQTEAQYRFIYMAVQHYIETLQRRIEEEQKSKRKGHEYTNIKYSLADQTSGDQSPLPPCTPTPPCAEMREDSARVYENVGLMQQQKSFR

Regarding `C[C@@H]1OCC2(CCN(c3cnc4c(N5CCCc6nc(-c7ccn(C)n7)ccc65)n[nH]c4n3)CC2)[C@@H]1N` [Compound 280, (3S,4S)-3-methyl-8-{3-[6-(1-methyl-1H-pyrazol-3-yl)-1,2,3,4-tetrahydro-1,5-naphthyridin-1-yl]-1H-pyrazolo[3,4-b]pyrazin-6-yl}-2-oxa-8-azaspiro[4.5]decan-4-amine], the IC50 (usually the concentration at which inhibition is half-maximal) was under 1000 nM.

In the case of `C[C@@H]1OCC2(CCN(c3cnc4c(N5CCCc6c5cccc6S(C)(=O)=O)n[nH]c4n3)CC2)[C@@H]1N` [Compound 281, (3S,4S)-8-[3-(5-methanesulfonyl-1,2,3,4-tetrahydroquinolin-1-yl)-1H-pyrazolo[3,4-b]pyrazin-6-yl]-3-methyl-2-oxa-8-azaspiro[4.5]decan-4-amine], the IC50 is under 1000 nM. The figure for `CNC(=O)c1ccc2c(n1)CCCN2c1n[nH]c2nc(N3CCC4(CC3)CO[C@@H](C)[C@H]4N)cnc12` [Compound 282, 5-(6-((3S,4S)-4-amino-3-methyl-2-oxa-8-azaspiro[4.5]decan-8-yl)-1H-pyrazolo[3,4-b]pyrazin-3-yl)-N-methyl-5,6,7,8-tetrahydro-1,5-naphthyridine-2-carboxamide] is under 1000 nM; for `C[C@@H]1OCC2(CCN(c3cnc4c(N5CCC(C(F)F)c6cc(C#N)ccc65)n[nH]c4n3)CC2)[C@@H]1N` (some centres unmarked) [Compound 283] it is under 1000 nM; for `C[C@@H]1OCC2(CCN(c3cnc4c(N5CC[C@H](C)c6nc(-c7cnn(C)c7)ccc65)n[nH]c4n3)CC2)[C@@H]1N` [Compound 284, (3S,4S)-3-methyl-8-{3-[(4S)-4-methyl-6-(1-methyl-1H-pyrazol-4-yl)-1,2,3,4-tetrahydro-1,5-naphthyridin-1-yl]-1H-pyrazolo[3,4-b]pyrazin-6-yl}-2-oxa-8-azaspiro[4.5]decan-4-amine] it is under 1000 nM. In the case of `C[C@@H]1OCC2(CCN(c3cnc4c(N5CCc6ccc(C#N)cc6C5)n[nH]c4n3)CC2)[C@@H]1N` [Compound 286], the IC50 was under 1000 nM. In the case of `CNC(=O)c1ccc2c(c1)[C@@H](C)CCN2c1n[nH]c2nc(N3CCC4(CC3)CO[C@@H](C)[C@H]4N)cnc12` [Compound 288, (4S)-1-{6-[(3S,4S)-4-amino-3-methyl-2-oxa-8-azaspiro[4.5]decan-8-yl]-1H-pyrazolo[3,4-b]pyrazin-3-yl}-N,4-dimethyl-1,2,3,4-tetrahydroquinoline-6-carboxamide] it was under 1000 nM; in that of `C[C@@H]1OCC2(CCN(c3cnc4c(N5CCCc6c5ccnc6-c5cn[nH]c5)n[nH]c4n3)CC2)[C@@H]1N` [Compound 289], under 1000 nM. In the case of `Cn1cc(-c2ccc3c(n2)CCCN3c2n[nH]c3nc(N4CCC5(CC4)COC[C@H]5N)cnc23)cn1` [Compound 290] it was under 1000 nM; in that of `C[C@@H]1OCC2(CCN(c3cnc4c(N5CCc6cnccc6C5)n[nH]c4n3)CC2)[C@@H]1N` [Compound 291], under 1000 nM; in that of `Cc1ccc2c(n1)CCCN2c1n[nH]c2nc(N3CCC4(CC3)CO[C@@H](C)[C@H]4N)cnc12` [Compound 292], under 1000 nM. In the case of `C[C@@H]1OCC2(CCN(c3cnc4c(N5CCCc6nc(-c7ncco7)ccc65)n[nH]c4n3)CC2)[C@@H]1N` [Compound 295, (3S,4S)-3-methyl-8-(3-(6-(oxazol-2-yl)-3,4-dihydro-1,5-naphthyridin-1(2H)-yl)-1H-pyrazolo[3,4-b]pyrazin-6-yl)-2-oxa-8-azaspiro[4.5]decan-4-amine] it was under 1000 nM. `C[C@@H]1OCC2(CCN(c3cnc4c(N5CCNc6nc(-c7cnn(C)c7)ccc65)n[nH]c4n3)CC2)[C@@H]1N` [Compound 296, (3S,4S)-3-methyl-8-(3-(6-(1-methyl-1H-pyrazol-4-yl)-3,4-dihydropyrido[2,3-b]pyrazin-1(2H)-yl)-1H-pyrazolo[3,4-b]pyrazin-6-yl)-2-oxa-8-azaspiro[4.5]decan-4-amine] yielded an IC50 of under 1000 nM.

For the compound `C[C@@H]1OCC2(CCN(c3cnc4c(N5CCCc6nc(C(F)F)ccc65)n[nH]c4n3)CC2)[C@@H]1N` [Compound 297], the IC50 was under 1000 nM. The figure for `Cn1cc(-c2ccc3c(n2)CCCN3c2n[nH]c3nc(N4CCC5(CCC[C@H]5N)CC4)cnc23)cn1` [Compound 298, (R)-8-(3-(6-(1-methyl-1H-pyrazol-4-yl)-3,4-dihydro-1,5-naphthyridin-1(2H)-yl)-1H-pyrazolo[3,4-b]pyrazin-6-yl)-8-azaspiro[4.5]decan-1-amine] is under 1000 nM; for `C[C@H]1CCN(c2n[nH]c3nc(N4CCC5(CC4)COC[C@H]5N)cnc23)c2ccc(-c3ncon3)cc21` [Compound 299, (4S)-8-{3-[(4S)-4-methyl-6-(1,2,4-oxadiazol-3-yl)-1,2,3,4-tetrahydroquinolin-1-yl]-1H-pyrazolo[3,4-b]pyrazin-6-yl}-2-oxa-8-azaspiro[4.5]decan-4-amine] it is under 1000 nM. The figure for `C[C@@H]1OCC2(CCN(c3cnc4c(N5CCN(C)c6ncccc65)n[nH]c4n3)CC2)[C@@H]1N` [Compound 301] is under 1000 nM.

In turn, `CC(=O)N1CCN(c2n[nH]c3nc(N4CCC5(CC4)CO[C@@H](C)[C@H]5N)cnc23)c2ccc(C#N)cc21` [Compound 302] showed an IC50 of under 1000 nM. In the case of `C[C@@H]1OCC2(CCN(c3cnc4c(N5CCCc6c5ccnc6-c5ccnn5C)n[nH]c4n3)CC2)[C@@H]1N` [Compound 303] it was under 1000 nM; in that of `C[C@@H]1OCC2(CCN(c3cnc4c(N5CCCc6nc(-c7cncnc7)ccc65)n[nH]c4n3)CC2)[C@@H]1N` [Compound 304], under 1000 nM; in that of `C[C@@H]1OCC2(CCN(c3cnc4c(N5CCCc6nc(-c7ccnnc7)ccc65)n[nH]c4n3)CC2)[C@@H]1N` [Compound 305], under 1000 nM.

Regarding `CC(=O)NCc1ccc2c(n1)CCCN2c1n[nH]c2nc(N3CCC4(CC3)CO[C@@H](C)[C@H]4N)cnc12` [Compound 306, N-[(5-{6-[(3S,4S)-4-amino-3-methyl-2-oxa-8-azaspiro[4.5]decan-8-yl]-1H-pyrazolo[3,4-b]pyrazin-3-yl}-5,6,7,8-tetrahydro-1,5-naphthyridin-2-yl)methyl]acetamide dihydrochloride], the IC50 is under 1000 nM. The figure for `C[C@@H]1OCC2(CCN(c3cnc4c(N5CCCc6c5ccnc6N5CCOCC5)n[nH]c4n3)CC2)[C@@H]1N` [Compound 307] is under 1000 nM. The figure for `C[C@@H]1OCC2(CCN(c3cnc4c(N5CCCc6nc(-n7cnnc7)ccc65)n[nH]c4n3)CC2)[C@@H]1N` [Compound 308] is under 1000 nM; for `C[C@@H]1OCC2(CCN(c3cnc4c(N5CCCc6nc(C7CCOC7)ccc65)n[nH]c4n3)CC2)[C@@H]1N` (stereo partly drawn) [Compound 309, (3S,4S)-3-methyl-8-(3-(6-(tetrahydrofuran-3-yl)-3,4-dihydro-1,5-naphthyridin-1(2H)-yl)-1H-pyrazolo[3,4-b]pyrazin-6-yl)-2-oxa-8-azaspiro[4.5]decan-4-amine] it is under 1000 nM; for `C[C@@H]1OCC2(CCN(c3cnc4c(N5CCN(C)c6nc(-c7cnn(C)c7)ccc65)n[nH]c4n3)CC2)[C@@H]1N` [Compound 310, (3S,4S)-3-methyl-8-(3-(4-methyl-6-(1-methyl-1H-pyrazol-4-yl)-3,4-dihydropyrido[2,3-b]pyrazin-1(2H)-yl)-1H-pyrazolo[3,4-b]pyrazin-6-yl)-2-oxa-8-azaspiro[4.5]decan-4-amine] it is under 1000 nM.

Turning to `CCCn1cc(-c2ccc3c(n2)CCCN3c2n[nH]c3nc(N4CCC5(CC4)CO[C@@H](C)[C@H]5N)cnc23)cn1` [Compound 311, (3S,4S)-3-methyl-8-{3-[6-(1-propyl-1H-pyrazol-4-yl)-1,2,3,4-tetrahydro-1,5-naphthyridin-1-yl]-1H-pyrazolo[3,4-b]pyrazin-6-yl}-2-oxa-8-azaspiro[4.5]decan-4-amine], the IC50 was under 1000 nM. In the case of `CC(C)n1cc(-c2ccc3c(n2)CCCN3c2n[nH]c3nc(N4CCC5(CC4)CO[C@@H](C)[C@H]5N)cnc23)cn1` [Compound 312, (3S,4S)-8-(3-(6-(1-isopropyl-1H-pyrazol-4-yl)-3,4-dihydro-1,5-naphthyridin-1(2H)-yl)-1H-pyrazolo[3,4-b]pyrazin-6-yl)-3-methyl-2-oxa-8-azaspiro[4.5]decan-4-amine] it was under 1000 nM; in that of `CNC(=O)N1CCN(c2n[nH]c3nc(N4CCC5(CC4)CO[C@@H](C)[C@H]5N)cnc23)c2ncccc21` [Compound 313, 4-{6-[(3S,4S)-4-amino-3-methyl-2-oxa-8-azaspiro[4.5]decan-8-yl]-1H-pyrazolo[3,4-b]pyrazin-3-yl}-N-methyl-1H,2H,3H,4H-pyrido[2,3-b]pyrazine-1-carboxamide], 1000 to 10000 nM. In the case of `C[C@@H]1OCC2(CCN(c3cnc4c(N5CCCc6nc(Oc7cnn(C)c7)ccc65)n[nH]c4n3)CC2)[C@@H]1N` [Compound 314] it was under 1000 nM; in that of `COc1ccc2c(n1)CCCN2c1n[nH]c2nc(N3CCC4(CC3)CO[C@@H](C)[C@H]4N)cnc12` [Compound 315], under 1000 nM; in that of `C[C@@H]1OCC2(CCN(c3cnc4c(N5CCNc6cc(-c7cnn(C)c7)ccc65)n[nH]c4n3)CC2)[C@@H]1N` [Compound 316, (3S,4S)-3-methyl-8-{3-[6-(1-methyl-1H-pyrazol-4-yl)-1,2,3,4-tetrahydroquinoxalin-1-yl]-1H-pyrazolo[3,4-b]pyrazin-6-yl}-2-oxa-8-azaspiro[4.5]decan-4-amine], under 1000 nM. In the case of `C[C@@H]1OCC2(CCN(c3cnc4c(N5CCCc6nc(-c7cnn(C(F)F)c7)ccc65)n[nH]c4n3)CC2)[C@@H]1N` [Compound 317] it was under 1000 nM; in that of `C[C@@H]1OCC2(CCN(c3cnc4c(N5CCCc6nc(-c7cnco7)ccc65)n[nH]c4n3)CC2)[C@@H]1N` [Compound 318], under 1000 nM. Consider `Cc1nc(-c2ccc3c(n2)CCCN3c2n[nH]c3nc(N4CCC5(CC4)CO[C@@H](C)[C@H]5N)cnc23)no1` [Compound 319, (3S,4S)-3-methyl-8-(3-[6-(5-methyl-1,2,4-oxadiazol-3-yl)-1,2,3,4-tetrahydro-1,5-naphthyridin-1-yl]-1H-pyrazolo[3,4-b]pyrazin-6-yl)-2-oxa-8-azaspiro[4.5]decan-4-amine; formic acid], for which the IC50 is under 1000 nM.
